Source: US5420289A, “Substituted indole-, indene-, pyranoindole- and tetrahydrocarbazole-alkanoic acid derivatives as inhibitors of PLA2 and lipoxygenase” (American Home Products Corporation, priority 1993, dated 1995)
Structures can show the parent of a compound that is named as a salt. Where two headings read alike, the source gives them in different places.

Legend:
[1] = test system: cyclooxygenase (PGE2 synthesis) in rat polymorphonuclear leukocytes (PMN); experiment: inhibition of PGE2 synthesis (cyclooxygenase) by rat glycogen-elicited PMN (Example 73); assay type: cell-based, rat (female Wistar); details: Leukocyte; for inhibition at 10000 µM: at 10 mM
Description: (§1) Rat polymorphonuclear leukocytes (PMNs) are obtained from female Wistar rats (150-200 g) which receive an injection of 6% glycogen (10 ml i.p.). Rats are sacrificed 18-24 hours post injection by CO2 asphyxiation and the elicited cells are harvested by peritoneal lavage using physiological saline (0.9% NaC1). The exudate is centrifuged at 400 ×g for 10 minutes. The supernatant fluid is discarded and the cell pellet is resuspended to a concentration of 2.0×10^7 cells/mL in HBSS containing Ca^++ and Mg^++ and 10 mM L-cysteine.
(§2) To 1 mL aliquots of cell suspension, test drugs or vehicle are added, then preincubated at 37° C. for 10 minutes. A23187 (1 mM), [^3 H]-AA (3.0 mCi/mL) and unlabeled AA (1 mM) are then added and the samples are further incubated for 10 minutes. The reaction is terminated by centrifugation and pelleting cells. Supernatants are then analyzed by HPLC analysis on a 15 cm×4.6 mm ID supelcosil LC-18 (Supelco)(3M) column, using a two solvent system at a flow rate of 1.4 mL total flow as follows:
In this assay, the procedure of Example 72 is carried out as described. However, in order to determine cyclooxygenase activity, the samples are cochromatographed with authentic reference [^3 H]-PGE2.
The results be calculated as in Example 72 and presented below: […]

[2] = test system: synthesis of LTB4 by rat glycogen-elicited polymorphonuclear leukocytes (PMN); experiment: inhibition of LTB4 synthesis by rat glycogen-elicited PMN (Example 72); assay type: cell-based, rat (female Wistar); details: Leukocyte; for inhibition at 10000 µM: at 10 mM, negative number denotes potentiation; for inhibition at 500 µM: at 0.5 mM
Excerpt: This is especially true with respect to 5,12-diHETE, which is also denoted as LTB4 lsee Ford-Hitchinson, J. Roy. Soc. Med., 74, 831 (1981)]. Compounds which inhibit the PLA2 -mediated release of arachidonic acid thereby effectively prevent the oxidation of arachidonic acid to the various leukotriene products via the lipoxygenase cascade. Accordingly, the specificity of action of PLA2 inhibitors can be determined by the activity of test compounds in this assay, which measures the ability of compounds to inhibit the synthesis of LTB4 by rat glycogen-elicited polymorphonuclear leukocytes (PMN) in the presence of exogenous substrate.
The assay is carded out as follows:
as §1, §2
Gradient: (system is equilibrated with Solvent A)
Percent solvent changes are accomplished in a linear fashion.
Injections: […] of each supernatant is injected directly onto column and ^3 H arachidonic acid metabolites are monitored using an on-line radioactivity detector (Ramona, IN/U S, Fairfield, NJ).
Standards: 10^4 -2.0×10^4 dpm of eicosanoids of interest are injected in […] EtOH cocktail.
Co-chromatography with standard [^3 H] leukotriene B4 (LTB4) in medium of stimulated PMN exposed to drug is compared to that found in medium of stimulated cells exposed to no drug, generating percent inhibition.
Results are expressed as percent inhibition at a given compound dose or as an IC50 value.

[3] = test system: 5-lipoxygenase in human whole blood; experiment: inhibition of 5-lipoxygenase in human whole blood (Example 79); assay type: cell-based; details: 25 μM
Description: The assay of this Example measures the ability of the compounds tested to inhibit 5-lipoxygenase in human whole blood.
(§3) This assay is carried out as follows:
Blood is obtained in 50-100 ml quantities from male donors. White blood cell counts and differentials are made. Two ml of blood are placed in a 15 ml polypropylene test tube. Compounds are solubilized in dimethylsulfoxide and diluted 1:10 in 10% bovine serum albumin in phosphate buffered saline, pH 7.4 resulting in a final dimethylsulfoxide concentration of 0.1% in the blood. Then, compounds are added to the blood in a shaking water bath at 37° C. for 10 minutes prior to the addition of […] calcium ionophore (A23187; Sigma). After ionophore administration, whole blood samples are mixed and incubated for 20 minutes at 37° C. in a shaking water bath. Incubation is terminated by placing samples in an ice bath and immediately adding ethylene glycol-bis-(b-aminoethyl ether)-N,N,N',N'-tetraacetic acid (10 mM). Samples are mixed and centrifuged at 1200 × g for 15 minutes at 4° C. Preparation of samples for evaluation by RIA or ELISA is carried out by the following protocol. Plasma is removed from sample tubes, placed in 15 ml polypropylene test tubes containing 8 ml methanol, and then vortexed to precipitate protein. Samples are stored at -70° C. overnight. The next day, samples are centrifuged at 200 × g for 15 minutes at 4° C. to pellet the precipitate. Samples are dried in a Savant speed vac concentrator, reconstituted to original volume with ice cold RIA or ELISA buffer, and stored at -70° C. until assayed. The assay for eicosanoids (LTB4, T×B2, and PGE2) is performed as described by the manufacturer of the [^3 H]-RIA kit or ELISA kit (LTB4 -Amersham, TxB2 and PGE2 - Caymen Chemical).
The total eicosanoid level in 2 ml of blood is calculated and reported as ng/10^6 neutrophils. […] Drug effects are expressed as percent change from control values.
Compounds tested in vitro are solubilized in dimethylsulfoxide and diluted 1:10 in 10% bovine serum albumin in phosphate buffer saline resulting in a final dimethylsulfoxide concentration of 0.1% i n the blood.

[4] = molecular target: T1, human synovial fluid PLA2 (Homo sapiens, UniProt P14555); experiment: in vitro isolated phospholipase A2 assay, human synovial fluid PLA2 (Example 74); assay type: biochemical; design: inhibition / % Inhibition, HSF (human synovial fluid): dose or concentration left out as unconfirmed; details: for IC50: Table III, read-out: IC50 HSF (human synovial fluid); for inhibition: read-out: % Inhibition, HSF (human synovial fluid)
T1 sequence (P14555 21-144): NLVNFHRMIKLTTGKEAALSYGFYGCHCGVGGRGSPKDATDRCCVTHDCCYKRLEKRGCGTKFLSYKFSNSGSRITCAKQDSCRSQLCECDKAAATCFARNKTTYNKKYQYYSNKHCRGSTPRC
Description: (§4) The compounds of the invention are tested in an in vitro isolated phospholipase A2 assay to determine the ability of the test compounds to inhibit the release of arachidonic acid from an arachidonic acid-containing substrate by the action of phospholipase A2 enzyme from human and non-human sources.
as §3
(§5) Into a 15 mL polypropylene tube are added the following:
(§6) ^6 Two human PLA2 enzymes are used:
b) Purified human synovial fluid.
(§7) Incubate the 100mL reaction mixture for 10 minutes at 37° C. in a shaking water bath. The reaction is terminated by the addition of 2 mL tetrahydrofuran, followed by vortexlag. NH2 columns (100 mg/mL--Analytichem International) are conditioned with 0.5 mL tetrahydrofuran followed by 0.5 mL tetrahydrofuran/water (2 mL:0.1 mL, v/v).
(§8) The sample is loaded onto the columns and slowly drawn through them. The hydrolyzed arachidonic acid retained in the columns is eluted therefrom with 1 mL tetrahydrofuran/glacial acetic acid (2%). The arachidonic acid is transferred to scintillation vials and quantitated by b-counting analysis. A "total counts" sample is prepared by pipetting […] ^3 H-arachidonate E. coli directly into a scintillation vial to which is added 1 mL tetrahydrofuran. 10 mL aquasol (scintillation cocktail) is added to all samples. [formula]

human platelet PLA2 = molecular target: T2, human platelet PLA2 (Homo sapiens, UniProt P14555); experiment: in vitro isolated phospholipase A2 assay, human platelet PLA2 (Example 74); assay type: biochemical; design: dose or concentration left out as unconfirmed; details: read-out: % Inhibition, HP (human platelet)
T2 construct: Semi-purified human platelet acid extract PLA2; from tissue; host or cells: human platelets (semi-purified acid extract)
T2 sequence (P14555 21-144): T1 sequence (P14555 21-144)
Description: as §4, §3, §5, §6
a) Semi-purified human platelet acid extract PLA2 (in 10 mM
sodium acetate buffer, pH 4.5). Remove protein precipitate by
centrifugation at about 2200 rpm for 10 minutes.
as §7, §8

[5] = * (negative) denotes a potentiation, read-out: % Inhibition (PGE2 synthesis)
[6] = read-out: % Inhibition (PGE2 synthesis), symbol only

SMILES | inhibition at 10000 µM [1, 5] [%] | inhibition at 10000 µM [2] [%] | IC50 [4] [µM] | inhibition [4] [%] | further results
CCc1cc(OCc2ccc3ccccc3n2)cc2c3c([nH]c12)C(CC)(CC(=O)O)OCC3 (stereo not drawn) [Example 8, 1,8-Diethyl-1,3,4,9-tetrahydro-6-(2-quinolinylmethoxy)pyrano[3.4-b]indole-1-acetic acid] | 47 | 91 | – | – | –
Cc1c(CC(=O)O)c2cc(OCc3ccc4ccccc4n3)ccc2n1Cc1ccc(Cl)cc1 [Example 16, 1-[(4-Chlorophenyl)methyl]-2-methyl-5-(2-quinolinylmethoxy)-1H-indole-3-acetic acid hydrochloride quarter hydrate] | – | 96 | 4.1 | 46 | % Inhibition of LTB4 [3]: 18%; inhibition at 10000 µM [1, 6]: < 0%
COC(=O)Cc1c(C)n(Cc2ccc(Cl)cc2)c2ccc(OCc3ccc4ccccc4n3)cc12 [Example 16C, 1-[(4-Chlorophenyl)methyl]-2-methyl-5-(2-quinolinylmethoxy)-1H-indole-3-acetic acid methyl ester] | – | – | – | – | inhibition at 10000 µM [1, 6]: < 0%; inhibition at 500 µM [2]: 88%
Cc1c(CC(=O)O)c2cc(OCc3ccc4ccccc4n3)ccc2n1C(=O)c1ccc(Cl)cc1 [Example 17, 1-(4-Chlorobenzoyl)-2-methyl-5-(2-quinolinylmethoxy)-1H-indole-3-acetic acid three quarters hydrate] | – | – | 14.9 | 58 | inhibition at 500 µM ([1]; at 0.5 mM, * (negative) denotes a potentiation): 60%; inhibition at 500 µM [2]: 46%
COC(=O)Cc1c(C)n(C(=O)c2ccc(Cl)cc2)c2ccc(OCc3ccc4ccccc4n3)cc12 [Example 17A, 1-(4-Chlorobenzoyl)-2-methyl-5-(2-quinolinylmethoxy)-1H-indole-3-acetic acid methyl esterone tenth hydrate] | 50 | 96 | – | – | –
CC(C(=O)O)c1ccc2c3cc(OCc4ccc5ccccc5n4)ccc3n(Cc3ccc4ccccc4n3)c2c1 (stereo not drawn) [Example 21, a-Methyl-6-(2-quinolinylmethoxy)-9-(2-quinolinylmethyl)-9H-carbazole-2-acetic acid] | -94 | 92 | – | – | –
Cc1c(CC(=O)O)c2cc(OCc3ccc4ccccc4n3)ccc2n1Cc1ccc(F)cc1 [Example 24, 1-[(4-Fluorophenyl)methyl]-2-methyl-5-(2-quinolinylmethoxy)-1H-indole-3-acetic acid hemihydrate] | -126 | 97 | – | 56 | –
Cc1c(CC(=O)O)c2cc(OCc3ccc4ccccc4n3)ccc2n1Cc1ccc(Br)cc1 [Example 25, 1-[(4-Bromophenyl)methyl]-2-methyl-5-(2-quinolinylmethoxy)-1H-indole-3-acetic acid hemihydrate] | -67 | 93 | – | 11 | –
Cc1c(CC(=O)O)c2cc(OCc3ccc4ccccc4n3)ccc2n1Cc1ccccc1 [Example 26, 1-[(Phenyl)methyl-2-methyl]-5-(2-quinolinylmethoxy)-1H-indole-3-acetic acid tenth hydrate] | -125 | 85 | 2.6 | 92 | –
CCCCCn1c(C)c(CC(=O)O)c2cc(OCc3ccc4ccccc4n3)ccc21 [Example 29, 2-Methyl-1-pentyl-5-(2-quinolinylmethoxy)-1H-indole-3-acetic acid hemihydrate] | -123 | 88 | 15.5 | 53 | –
CCCCCCn1c(C)c(CC(=O)O)c2cc(OCc3ccc4ccccc4n3)ccc21 [Example 30, 1-Hexyl-2-methyl-5-(2-quinolinylmethoxy)-1H-indole-3-acetic acid three quarters hydrate] | -130 | 90 | 16.4 | 46 | –
Cc1c(CC(N)=O)c2cc(OCc3nc4ccccc4s3)ccc2n1Cc1ccc(Cl)cc1 [Example 45, 5-(2-Benzothiazolylmethoxy)-1-[(4-chlorophenyl)methyl]-2-methyl-1H-indole-3-acetamide] | – | – | – | 23 | inhibition (human platelet PLA2): 33%
Cc1c(CC(=O)NOCc2ccccc2)c2cc(OCc3nc4ccccc4s3)ccc2n1Cc1ccc(Cl)cc1 [Example 48, 5-(2-Benzothiazolylmethoxy)-1-[(4-chlorophenyl)methyl]-N-(phenylmethoxy)-2-methyl-1H-indole-3-acetamide] | – | – | – | 54 | inhibition (human platelet PLA2): 4%
Cc1c(CC(=O)O)c2cc(OCc3csc(-c4ccccc4)n3)ccc2n1Cc1ccc(C(C)(C)C)cc1 [Example 62, 5-[(2-Phenyl-4-thiazolyl)methoxy]-1-[[4-(1,1-dimethylethyl)phenyl]methyl]-2-methyl-1H-indole-3-acetic acid hemihydrate] | – | – | – | 30 | inhibition (human platelet PLA2): 3%
CC(C(=O)O)c1ccc2c(c1)[nH]c1ccc(Cl)cc12 (stereo not drawn) [carprofen, reference compound] | 83 | -10 | – | – | –
CC1=C(CC(=O)O)c2cc(F)ccc2/C1=C\c1ccc([S+](C)[O-])cc1 (stereo not drawn) [sulindac, reference compound] | 23 | -10 | – | – | –
